Data taken from ChEMBL document CHEMBL1649315, “Extended-spectrum cephalosporinase in Acinetobacter baumannii” (Antimicrob Agents Chemother, 2010).
Converted amounts (≈) assume the structure as drawn.

How the values were obtained:
Escherichia coli [1] = experiment: Antimicrobial activity against Escherichia coli TOP10 harboring pADC-33 plasmid with entire blaAmpC gene with alanine residue deletion at 215 position by Etest method; type: functional
Acinetobacter baumannii [2] = experiment: Ratio of Kcat to Km for Acinetobacter baumannii ADC-33 beta-lactamase to Kcat to Km for Acinetobacter baumannii ADC-11 beta-lactamase
Acinetobacter baumannii [3] = experiment: Antimicrobial activity against Acinetobacter baumannii KI by Etest method; type: functional
Escherichia coli [4] = experiment: Antimicrobial activity against Escherichia coli TOP10 harboring pADC-33 plasmid by Etest method; type: functional
Escherichia coli [5] = experiment: Antimicrobial activity against Escherichia coli TOP10 harboring pADC-11 plasmid with entire blaAmpC gene by Etest method; type: functional
Acinetobacter baumannii [6] = experiment: Antimicrobial activity against Acinetobacter baumannii CIP70.10 by Etest method; type: functional
Escherichia coli [7] = experiment: Antimicrobial activity against Escherichia coli TOP10 harboring pADC-50 plasmid by Etest method; type: functional
Escherichia coli [8] = experiment: Antimicrobial activity against Escherichia coli TOP10 harboring pADC-33 plasmid carrying entire blaAmpC gene with alanine residue deletion at 215 position and R210P substitution by Etest method; type: functional
Escherichia coli [9] = experiment: Antimicrobial activity against Escherichia coli TOP10 harboring pADC-11 plasmid by Etest method; type: functional
Escherichia coli [10] = experiment: Antimicrobial activity against Escherichia coli TOP10 harboring pADC-33 plasmid with entire blaAmpC gene by Etest method; type: functional
Escherichia coli [11] = experiment: Antimicrobial activity against Escherichia coli TOP10 harboring pADC-11 plasmid carrying entire blaAmpC gene with alanine residue insertion at 215 position by Etest method; type: functional
Acinetobacter baumannii [12] = experiment: Antimicrobial activity against Acinetobacter baumannii expressing ESAC beta-lactamase by Etest method; type: functional
Acinetobacter baumannii [13] = experiment: Antimicrobial activity against Acinetobacter baumannii AYE expressing VEB-1 gene by Etest method; type: functional
Acinetobacter baumannii [14] = experiment: Antimicrobial activity against Acinetobacter baumannii beta-lactamase by Etest method; type: functional
Escherichia coli [15] = experiment: Antimicrobial activity against Escherichia coli TOP10 harboring pADC-33 plasmid by Etest method in presence of clavulanic acid; type: functional
Escherichia coli [16] = experiment: Antimicrobial activity against Escherichia coli TOP10 harboring pADC-33 plasmid carrying entire blaAmpC gene by Etest method in presence of clavulanic acid; type: functional
Escherichia coli [17] = experiment: Antimicrobial activity against Escherichia coli TOP10 harboring pADC-11 plasmid by Etest method in presence of clavulanic acid; type: functional
Escherichia coli [18] = experiment: Antimicrobial activity against Escherichia coli TOP10 harboring pTOPO plasmid by Etest method; type: functional
Acinetobacter baumannii [19] = experiment: Antimicrobial activity against Acinetobacter baumannii AYE expressing VEB-1 gene by Etest method in presence of clavulanic acid; type: functional
Escherichia coli [20] = experiment: Antimicrobial activity against Escherichia coli TOP10 harboring pADC-11 plasmid carrying entire blaAmpC gene with alanine residue insertion at 215 position and R210P substitution by Etest method; type: functional
Acinetobacter baumannii [21] = experiment: Antimicrobial activity against Acinetobacter baumannii CIP70.10 by Etest method in presence of clavulanic acid; type: functional
Escherichia coli [22] = experiment: Antimicrobial activity against Escherichia coli TOP10 harboring pADC-11 plasmid carrying entire blaAmpC gene with alanine residue insertion at 215 position by Etest method in presence of clavulanic acid; type: functional
Escherichia coli [23] = experiment: Antimicrobial activity against Escherichia coli TOP10 harboring pADC-33 plasmid carrying entire blaAmpC gene with alanine residue deletion at 215 position by Etest method in presence of clavulanic acid; type: functional
Acinetobacter baumannii [24] = experiment: Antimicrobial activity against Acinetobacter baumannii KI by Etest method in presence of clavulanic acid; type: functional
Escherichia coli [25] = experiment: Antimicrobial activity against Escherichia coli TOP10 harboring pTOPO plasmid by Etest method in presence of clavulanic acid; type: functional
Escherichia coli [26] = experiment: Antimicrobial activity against Escherichia coli TOP10 harboring pADC-11 plasmid carrying entire blaAmpC gene with alanine residue deletion at 215 position and R210P substitution by Etest method in presence of clavulanic acid; type: functional
Escherichia coli [27] = experiment: Antimicrobial activity against Escherichia coli TOP10 harboring pADC-50 plasmid by Etest method in presence of clavulanic acid; type: functional
Escherichia coli [28] = experiment: Antimicrobial activity against Escherichia coli TOP10 harboring pADC-33 plasmid carrying entire blaAmpC gene with alanine residue deletion at 215 position and R210P substitution by Etest method in presence of clavulanic acid; type: functional
Escherichia coli [29] = experiment: Antimicrobial activity against Escherichia coli TOP10 harboring pADC-11 plasmid carrying entire blaAmpC gene by Etest method in presence of clavulanic acid; type: functional
ADC-11 = ADC-11 (Acinetobacter baumannii, UniProt D6NSM8); experiment: Activity of Acinetobacter baumannii ADC-11 beta-lactamase
Beta-lactamase ADC-33 = Beta-lactamase ADC-33 (Acinetobacter baumannii, UniProt B2ZTR6); experiment: Activity of Acinetobacter baumannii ADC-33 beta-lactamase
Acinetobacter baumannii [30] = experiment: Ratio of Kcat to Ki for Acinetobacter baumannii ADC-33 beta-lactamase to Kcat to Ki for Acinetobacter baumannii ADC-11 beta-lactamase

Compound | kcat/Km (Acinetobacter baumannii [2]) | MIC (Escherichia coli [1]) | MIC (Acinetobacter baumannii [3]) | MIC (Escherichia coli [4]) | MIC (Escherichia coli [5]) | MIC (Acinetobacter baumannii [6]) | MIC (Escherichia coli [7]) | MIC (Escherichia coli [8]) | MIC (Escherichia coli [9]) | MIC (Escherichia coli [10]) | MIC (Escherichia coli [11]) | MIC (Acinetobacter baumannii [13]) | MIC (Escherichia coli [20]) | also measured
CO/N=C(\C(=O)N[C@@H]1C(=O)N2C(C(=O)[O-])=C(C[N+]3(C)CCCC3)CS[C@H]12)c1csc(N)n1 | 2e+07 M⁻¹ s⁻¹ | 0.25 µg/mL (≈ 0.52 µM) | 256 µg/mL (≈ 533 µM) | 0.125 µg/mL (≈ 0.26 µM) | 0.125 µg/mL (≈ 0.26 µM) | 1 µg/mL (≈ 2.08 µM) | 0.032 µg/mL (≈ 0.0666 µM) | 0.125 µg/mL (≈ 0.26 µM) | 0.032 µg/mL (≈ 0.0666 µM) | 1 µg/mL (≈ 2.08 µM) | 0.5 µg/mL (≈ 1.04 µM) | > 256 µg/mL | – | MIC (Acinetobacter baumannii [12]): 32 µg/mL (≈ 66.6 µM); MIC (Acinetobacter baumannii [14]): 2 µg/mL (≈ 4.16 µM)
CC1(C)S[C@@H]2[C@H](NC(=O)[C@H](N)c3ccc(O)cc3)C(=O)N2[C@H]1C(=O)O [AMOXICILLIN] | – | > 256 µg/mL | > 256 µg/mL | > 256 µg/mL | > 256 µg/mL | 32 µg/mL (≈ 87.6 µM) | 256 µg/mL (≈ 701 µM) | > 256 µg/mL | > 256 µg/mL | > 256 µg/mL | > 256 µg/mL | > 256 µg/mL | > 256 µg/mL | MIC (Escherichia coli [15]): > 256 µg/mL; MIC (Escherichia coli [16]): > 256 µg/mL; MIC (Escherichia coli [17]): 256 µg/mL; MIC (Escherichia coli [18]): 2 µg/mL (≈ 5.47 µM); MIC (Acinetobacter baumannii [19]): 128 µg/mL; MIC (Acinetobacter baumannii [21]): 16 µg/mL; MIC (Escherichia coli [22]): > 256 µg/mL; MIC (Escherichia coli [23]): > 256 µg/mL; MIC (Acinetobacter baumannii [24]): 64 µg/mL; MIC (Escherichia coli [25]): 2 µg/mL; MIC (Escherichia coli [26]): 256 µg/mL; MIC (Escherichia coli [27]): 256 µg/mL; MIC (Escherichia coli [28]): 256 µg/mL; MIC (Escherichia coli [29]): > 256 µg/mL
C[C@H]1[C@H](NC(=O)/C(=N\OC(C)(C)C(=O)O)c2csc(N)n2)C(=O)N1S(=O)(=O)O [AZTREONAM] | – | 6 µg/mL (≈ 13.8 µM) | 256 µg/mL (≈ 588 µM) | 8 µg/mL (≈ 18.4 µM) | 2 µg/mL (≈ 4.59 µM) | 8 µg/mL (≈ 18.4 µM) | – | 2 µg/mL (≈ 4.59 µM) | 0.094 µg/mL (≈ 0.216 µM) | 256 µg/mL (≈ 588 µM) | 16 µg/mL (≈ 36.7 µM) | > 256 µg/mL | 256 µg/mL (≈ 588 µM) | Ki (ADC-11): 3000 nM; Ki (Beta-lactamase ADC-33): 7 nM; MIC (Acinetobacter baumannii [12]): > 256 µg/mL; MIC (Acinetobacter baumannii [14]): 12 µg/mL (≈ 27.6 µM)
CO/N=C(\C(=O)N[C@@H]1C(=O)N2C(C(=O)O)=C(COC(C)=O)CS[C@H]12)c1csc(N)n1 [CEFOTAXIME] | – | 16 µg/mL (≈ 35.1 µM) | > 256 µg/mL | 128 µg/mL (≈ 281 µM) | 8 µg/mL (≈ 17.6 µM) | 8 µg/mL (≈ 17.6 µM) | 0.5 µg/mL (≈ 1.1 µM) | 8 µg/mL (≈ 17.6 µM) | 0.5 µg/mL (≈ 1.1 µM) | > 256 µg/mL | 256 µg/mL (≈ 562 µM) | > 256 µg/mL | > 256 µg/mL | kcat/Km (Acinetobacter baumannii [30]): 2e+07 M⁻¹ s⁻¹; MIC (Escherichia coli [18]): 0.047 µg/mL (≈ 0.103 µM); Ki (ADC-11): 2500 nM; Ki (Beta-lactamase ADC-33): 500 nM

Now from value to compound, other results behind:

kcat/Km (Acinetobacter baumannii [2]) | Compound | MIC (Escherichia coli [1]) | MIC (Acinetobacter baumannii [3]) | MIC (Escherichia coli [4]) | MIC (Escherichia coli [5]) | MIC (Acinetobacter baumannii [6]) | MIC (Escherichia coli [7]) | MIC (Escherichia coli [8]) | MIC (Escherichia coli [9]) | MIC (Escherichia coli [10]) | MIC (Escherichia coli [11]) | MIC (Acinetobacter baumannii [13]) | MIC (Escherichia coli [20]) | also measured
500000 M⁻¹ s⁻¹ | CC(=O)OCC1=C(C(=O)O)N2C(=O)[C@@H](NC(=O)Cc3cccs3)[C@H]2SC1 | – | – | – | – | – | – | – | – | – | – | – | – | –
1.3e+06 M⁻¹ s⁻¹ | CC1(C)S[C@@H]2[C@H](NC(=O)Cc3ccccc3)C(=O)N2[C@H]1C(=O)O | – | – | – | – | – | – | – | – | – | – | – | – | –
500000 M⁻¹ s⁻¹ | CC1(C)S[C@@H]2[C@H](NC(=O)[C@H](N)c3ccccc3)C(=O)N2[C@H]1C(=O)O | – | – | – | – | – | – | – | – | – | – | – | – | –
800000 M⁻¹ s⁻¹ | O=C(Cc1cccs1)N[C@@H]1C(=O)N2C(C(=O)[O-])=C(C[n+]3ccccc3)CS[C@H]12 | – | – | – | – | – | – | – | – | – | – | – | – | –
